Experimental data from ChEMBL document CHEMBL1250534, “Gentisides C-K: nine new neuritogenic compounds from the traditional Chinese medicine Gentiana rigescens Franch” (2010).
The source made the active and inactive calls. No cut-off for these calls is given here.

Columns and labels:
PC-12 [1] = experiment: Neuritogenic activity in rat PC12 cells assessed as induction of neurite outgrowth at 1 to 30 uM after 48 hrs; assay type: functional
PC-12 [2] = experiment: Neuritogenic activity in rat PC12 cells assessed as induction of neurite outgrowth at 30 uM after 48 hrs; assay type: functional
PC-12 [3] = experiment: Neuritogenic activity in rat PC12 cells assessed as induction of bipolar neurite outgrowth at 1 uM after 48 hrs; assay type: functional, cell-based
PC-12 [4] = experiment: Neuritogenic activity in rat PC12 cells assessed as induction of neurite outgrowth at 1 uM after 48 hrs; assay type: functional
PC-12 [5] = experiment: Neuritogenic activity in rat PC12 cells assessed as induction of neurite outgrowth after 48 hrs; assay type: functional, cell-based
PC-12 [6] = experiment: Neuritogenic activity in rat PC12 cells assessed as induction of multipolar neurite outgrowth at 1 uM after 48 hrs; assay type: functional, cell-based
PC-12 [7] = experiment: Cytotoxicity against rat PC12 cells at 1 uM; assay type: functional, cell-based
PC-12 [8] = experiment: Neuritogenic activity in rat PC12 cells assessed as induction of neurite outgrowth at 0.03 uM after 48 hrs; assay type: functional, cell-based

CCCCCCCCCCCCCCCCCCOC(=O)c1cccc(O)c1O [GENTISIDE E]
Activity (PC-12 [1]): 67%

CCCCCCCCCCCCCCCCCCCCCCCCOC(=O)c1cccc(O)c1O [GENTISIDE K]
Activity (PC-12 [2]): 48%

CCCCCCCCCCCCCCCCCCCCCOC(=O)c1cccc(O)c1O [GENTISIDE I]
Activity (PC-12 [1]): 67%

CC[C@H](C)CCCCCCCCCCCCCCCCCOC(=O)c1cccc(O)c1O [GENTISIDE H]
Activity (PC-12 [1]): 67%

CC[C@H](C)CCCCCCCCCCCCCOC(=O)c1cccc(O)c1O [GENTISIDE C]
Activity (PC-12 [3]): Active | Activity (PC-12 [4]): 91% | Activity (PC-12 [5]): Dose-dependent effect | Activity (PC-12 [1]): 67% | Activity (PC-12 [6]): Active | Activity (PC-12 [7]): inactive | Activity (PC-12 [8]): Active

CC[C@H](C)CCCCCCCCCCCCCCCOC(=O)c1cccc(O)c1O [GENTISIDE F]
Activity (PC-12 [1]): 67%

CC(C)CCCCCCCCCCCCCCCOC(=O)c1cccc(O)c1O [GENTISIDE D]
Activity (PC-12 [1]): 67%

CCCCCCCCCCCCCCCCCCCCCCOC(=O)c1cccc(O)c1O [GENTISIDE J]
Activity (PC-12 [1]): 67%

CC[C@H](C)CCCCCCCCCCCCCCCCOC(=O)c1cccc(O)c1O [GENTISIDE G]
Activity (PC-12 [1]): 67%
